Results from patent US11986512B2, “Compositions and methods for cancer therapy” (Thetis Pharmaceuticals LLC, priority 2021, dated 2024).

Columns and labels:
[1] = tested on: polymorphonuclear leukocyte (PMN) recruitment; details: equimolar dose; cited from earlier work
[2] = tested on: CD4+ and CD8+ cells in the liver; details: administration of either RvD1 or RvE1; cited from earlier work
HPV tumorigenesis = details: cited from earlier work
LLC cells [3] = experiment: Metastatic LLC resection model, perioperative (neo-adjuvant) treatment; assay type: in vivo, C57BL/6J male mice; details: 5 mg/kg, i.p, Q6D, first dose 24 hours prior to surgery; compared to vehicle control
Description: To investigate the efficacy of LTD dosing of bis RvE1 Mg-di-lysinate as neo-adjuvant therapy, a study was conducted in the metastatic LLC resection model with treatment initiated in the perioperative window. A total of fifteen (15) C57BL/6J male mice were injected subcutaneously with 1×10e6 living LLC cells. Once tumors reached approximately 1200-1500 mme3 in size, the mice were randomized (n=4-8 per group) to treatment with vehicle (SC, Q6D), bis RvE1 Mg-di-lysinate (300 ug/kg, SC, Q6D), or cisplatin (5 mg/kg, i.p, Q6D), followed by surgical resection of the tumors. The mice in the vehicle and cisplatin groups received an initial dose twenty-four (24) hours prior to surgery, and the mice treated with bis RvE1 Mg-di-lysinate received an initial dose two (2) hours prior to surgery. All mice were sacrificed on day 19 following the death of three mice in the vehicle control group on day 18.

LLC cells [4] = experiment: Lewis lung carcinoma (LLC) model, with and without anti-PD1 or cisplatin; assay type: in vivo, C57BL/6J male mice; details: monotherapy, 5 mg/kg, i.p, Q5D
Description: A representative compound of Formula IV, RvE1 magnesium dilysinate, was tested for efficacy in several mouse models of cancer, including the Panc2-H7 model of pancreatic cancer, the Lewis lung carcinoma (LLC) model, the MC38 model of colorectal cancer, and the B16F10 model of melanoma. These models are well established, highly tumorigenic syngeneic models in which murine cancer cell lines are injected subcutaneously (SC) into the dorsum of C57BL/6J mice. If left untreated, these tumors grow rapidly and lead to death or euthanasia, per protocol. As detailed below in Examples 1-9 and the accompanying figures, bis RvE1 Mg-di-lysinate (Compound 1) was unexpectedly effective as an anti-cancer agent in each of these model systems when administered in a less than daily (LTD) dosing regimen. […] Without being bound by any theory, the surprising efficacy of LTD dosing of resolvins in the cancer model systems described here may be the result of durable effects on the tumor microenvironment including changes in immune cell phenotype, vascularization, stromal phenotype, and antigen presentation, as well as durable effects on the T-cell compartment such as T-cell priming and increased tumor-infiltrating lymphocytes.
To expand our understanding of bis RvE1 Mg-di-lysinate as a cancer therapy that could be used in combination with other cancer therapies including immune checkpoint inhibitors, bis RvE1 Mg-di-lysinate monotherapy and in combination either anti-PD1 or cisplatin was investigated in the LLC model of non-small cell lung cancer, which is a model known to unresponsive to anti-PD1 therapy and moderately responsive to cisplatin. Yu et al., J Exp Clin Cancer Res. 2010; 29(1):46; Lechner et al., J Immunother. 2013; 36(9):477-489. A total of forty (40) C57BL/6J male mice were injected subcutaneously with 1×10e6 living LLC cells. […] In addition, bis RvE1 Mg-di-lysinate was evaluated in combination with anti-PD1 or cisplatin. […]

KPC cells = experiment: Orthotopic KPC model of pancreatic cancer, survival; assay type: in vivo, C57BL/6J male mice
Description: To expand our understanding of less than daily (LTD) dosing of bis RvE1 Mg-di-lysinate as a cancer therapy that could be used in combination with chemotherapy, bis RvE1 Mg-di-lysinate (Compound 1) was investigated in the orthotopic KPC model of pancreatic cancer. A total of fifteen (15) C57BL/6J male mice were implanted orthotopically with 5×10e5 living KPC cells into the pancreas. The mice were randomized (n=7-8) to treatment with bis RvE1 Mg-di-lysinate (300 ug/kg, SC, Q6D) with or without gemcitabine (50 mg/kg, IP, Q3D, up to 6 doses) one day after tumor cell implantation.

Structure (SMILES): CCC(=O)/C=C/C=C\C[C@@H](O)/C=C/C=C/C=C\[C@@H](O)CCCC(=O)O [Compound 18-oxo-RvE1, 18-oxo-RvE1]
- activity in zymosan-induced peritonitis (PMN recruitment) [1]: devoid of activity

Structure (SMILES): CC/C=C\C[C@H](O)/C=C/C=C\C=C\C=C\[C@@H](O)[C@@H](O)C/C=C\CCC(=O)O [RvD1, 7S,8R,17S-trihydroxy-4Z,9E,11E,13Z,15E,19Z-docosahexaenoic acid]
- levels of CD4+ and CD8+ cells in the liver [2]: markedly downregulated levels of CD4+ and CD8+ cells in the liver
- tumor infiltration levels of CD4+ and CD8+ T cells (HPV tumorigenesis; in vivo): did not modify tumor infiltration levels of CD4+ and CD8+ T cells
- tumor progression (HPV tumorigenesis; via modulated activity of tumor-associated neutrophils (PMN)): reduce tumor progression

Structure (SMILES): CC[C@@H](O)/C=C/C=C\C[C@@H](O)/C=C/C=C/C=C\[C@@H](O)CCCC(=O)O [RvE1, 5S,12R,18R-trihydroxy-6Z,8E,10E,14Z,16E-eicosapentaenoic acid]
- activity in zymosan-induced peritonitis (PMN recruitment) [1]: potently reduced polymorphonuclear leukocyte (PMN) recruitment
- levels of CD4+ and CD8+ cells in the liver [2]: markedly downregulated levels of CD4+ and CD8+ cells in the liver

Structure (SMILES): N.N.[Cl][Pt][Cl] [cisplatin, reference compound]
- number of lung metastases (LLC cells [3]): failed to show a significant reduction
- number of mice with lymph node metastasis (LLC cells [3]): failed to show a significant reduction
- tumor volume (Day 11 vs Day 0) (LLC cells [4]): failed to demonstrate efficacy as monotherapy compared to placebo

Structure (SMILES): Nc1ccn([C@@H]2O[C@H](CO)[C@@H](O)C2(F)F)c(=O)n1 [gemcitabine, reference compound]
- mice alive as of the last observation (day 250) (KPC cells; gemcitabine monotherapy group): zero of eight mice
- mean survival (KPC cells; gemcitabine monotherapy, 50 mg/kg, IP, Q3D, up to 6 doses): 25 days
